Reference: patent publication US11178873B2, “Cyclic N-carboxamide compounds useful as herbicides” (FMC CORPORATION, priority 2015, dated 2021)

Experiments:
Format in all cases: in vivo
[1] = test system: barnyardgrass (Echinochloa crus-galli); test: Test A preemergence, barnyardgrass; conditions: 0 to 100 scale, 0 no effect, 100 complete control
Summary of the method: (§1)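 Compounds are applied in a non-phytotoxic solvent with surfactant, either preemergence as a directed soil spray or postemergence at the one- to two-leaf stage. Plants grow in loam–sand soil in a greenhouse, and injury is scored visually against untreated controls after about 10 d (0–100 scale).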

[2] = test system: velvetleaf (Abutilon theophrasti); test: Test A preemergence, velvetleaf; conditions: 0 to 100 scale, 0 no effect, 100 complete control
Description: (§2) Seeds of plant species selected from barnyardgrass (Echinochloa crus-galli), crabgrass, large (large crabgrass, Digitaria sanguinalis), kochia (Kochia scoparia), ragweed (common ragweed, Ambrosia elatior), morningglory (Ipomoea spp.), velvetleaf (Abutilon theophrasti), ryegrass, Italian (Italian ryegrass, Lolium multiflorum), foxtail, giant (giant foxtail, Setaria faberii), wheat (Triticum aestivum), corn (Zea mays), and pigweed (Amaranthus retroflexus), were planted into a blend of loam soil and sand and treated preemergence with a directed soil spray using test chemicals formulated in a non-phytotoxic solvent mixture which included a surfactant. At the same time, plants selected from these crop and weed species and also blackgrass (Alopecurus myosuroides), and galium (catchweed bedstraw, Galium aparine), were planted in pots containing the same blend of loam soil and sand and treated with postemergence applications of test chemicals formulated in the same manner. Plants ranged in height from 2 to 10 cm and were in the one- to two-leaf stage for the postemergence treatment. Treated plants and untreated controls were maintained in a greenhouse for approximately 10 d, after which time all treated plants were compared to untreated controls and visually evaluated for injury. Plant response ratings, summarized in Table A, are based on a 0 to 100 scale where 0 is no effect and 100 is complete control. A dash (-) response means no test result.

[3] = test system: morningglory (Ipomoea spp.); test: Test A postemergence, morningglory; conditions: 0 to 100 scale, 0 no effect, 100 complete control
Description: as §2

[4] = test system: sedge, umbrella (small-flower umbrella sedge, Cyperus difformis); test: Test B flooded paddy test, sedge, umbrella; conditions: Flood, 250 g ai/ha; scale 0 to 100 (0 no effect, 100 complete control); 13 to 15 d
Summary of the method: (§3)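 Plants at the 2-leaf stage were flooded to 3 cm above soil, and test compounds were applied directly into the paddy water, which was held at that depth throughout. After 13 to 15 d in a greenhouse, injury was rated visually against untreated controls on a 0–100 scale (0 no effect, 100 complete control).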

[5] = test system: foxtail, giant (giant foxtail, Setaria faberii); test: Test A preemergence, foxtail, giant; conditions: 0 to 100 scale, 0 no effect, 100 complete control
Summary of the method: as §1

[6] = test system: barnyardgrass (Echinochloa crus-galli); test: Test A postemergence, barnyardgrass; conditions: 0 to 100 scale, 0 no effect, 100 complete control
Summary of the method: as §1

[7] = test system: velvetleaf (Abutilon theophrasti); test: Test A postemergence, velvetleaf; conditions: 0 to 100 scale, 0 no effect, 100 complete control
Description: as §2

[8] = test system: morningglory (Ipomoea spp.); test: Test A preemergence, morningglory; conditions: 0 to 100 scale, 0 no effect, 100 complete control
Description: as §2

[9] = test system: pigweed (Amaranthus retroflexus); test: Test A preemergence, pigweed; conditions: 0 to 100 scale, 0 no effect, 100 complete control
Summary of the method: as §1

[10] = test system: foxtail, giant (giant foxtail, Setaria faberii); test: Test A postemergence, foxtail, giant; conditions: 0 to 100 scale, 0 no effect, 100 complete control
Summary of the method: as §1

[11] = test system: crabgrass, large (large crabgrass, Digitaria sanguinalis); test: Test A postemergence, crabgrass, large; conditions: 0 to 100 scale, 0 no effect, 100 complete control
Description: as §2

[12] = test system: ducksalad (Heteranthera limosa); test: Test B flooded paddy test, ducksalad; conditions: Flood, 250 g ai/ha; scale 0 to 100 (0 no effect, 100 complete control); 13 to 15 d
Summary of the method: as §3

[13] = test system: wheat (Triticum aestivum); test: Test A postemergence, wheat; conditions: 0 to 100 scale, 0 no effect, 100 complete control
Summary of the method: as §1

[14] = test system: pigweed (Amaranthus retroflexus); test: Test A postemergence, pigweed; conditions: 0 to 100 scale, 0 no effect, 100 complete control
Summary of the method: as §1

corn (Zea mays) [15] = test: Test A preemergence, corn; conditions: 0 to 100 scale, 0 no effect, 100 complete control
Description: as §2

corn (Zea mays) [16] = test: Test A postemergence, corn; conditions: 0 to 100 scale, 0 no effect, 100 complete control
Summary of the method: as §1

[17] = test system: wheat (Triticum aestivum); test: Test A preemergence, wheat; conditions: 0 to 100 scale, 0 no effect, 100 complete control
Description: as §2

rice (Oryza sativa) = test: Test B flooded paddy test, rice; conditions: Flood, 250 g ai/ha; scale 0 to 100 (0 no effect, 100 complete control); 13 to 15 d
Summary of the method: as §3

[18] = test system: crabgrass, large (large crabgrass, Digitaria sanguinalis); test: Test A preemergence, crabgrass, large; conditions: 0 to 100 scale, 0 no effect, 100 complete control
Description: as §2

[19] = test system: barnyardgrass (Echinochloa crus-galli); test: Test B flooded paddy test, barnyardgrass; conditions: Flood, 250 g ai/ha; scale 0 to 100 (0 no effect, 100 complete control); 13 to 15 d
Summary of the method: as §3

## O=C(Nc1ccccc1F)N1C(=O)OCC1c1ccc(Cl)cc1 (stereo not drawn) [Compound 4]
[1]; 125 g ai/ha
  Plant response rating, Barnyardgrass: 0
[1]; 500 g ai/ha
  Plant response rating, Barnyardgrass: 0
[2]; 125 g ai/ha
  Plant response rating, Velvetleaf: 0
[2]; 500 g ai/ha
  Plant response rating, Velvetleaf: 0
[3]; 125 g ai/ha
  Plant response rating, Morningglory: 0
[3]; 500 g ai/ha
  Plant response rating, Morningglory: 0
[4]
  Plant response rating, Sedge, Umbrella: 0
[5]; 125 g ai/ha
  Plant response rating, Foxtail, Giant: 0
[5]; 500 g ai/ha
  Plant response rating, Foxtail, Giant: 0
[6]; 125 g ai/ha
  Plant response rating, Barnyardgrass: 0
[6]; 500 g ai/ha
  Plant response rating, Barnyardgrass: 0
[7]; 125 g ai/ha
  Plant response rating, Velvetleaf: 0
[7]; 500 g ai/ha
  Plant response rating, Velvetleaf: 0
[8]; 125 g ai/ha
  Plant response rating, Morningglory: 0
[8]; 500 g ai/ha
  Plant response rating, Morningglory: 0
[9]; 125 g ai/ha
  Plant response rating, Pigweed: 0
[9]; 500 g ai/ha
  Plant response rating, Pigweed: 0
[10]; 125 g ai/ha
  Plant response rating, Foxtail, Giant: 0
[10]; 500 g ai/ha
  Plant response rating, Foxtail, Giant: 0
[11]; 125 g ai/ha
  Plant response rating, Crabgrass, Large: 0
[11]; 500 g ai/ha
  Plant response rating, Crabgrass, Large: 0
[12]
  Plant response rating, Ducksalad: 0
[13]; 125 g ai/ha
  Plant response rating, Wheat: 0
[13]; 500 g ai/ha
  Plant response rating, Wheat: 0
[14]; 125 g ai/ha
  Plant response rating, Pigweed: 0
[14]; 500 g ai/ha
  Plant response rating, Pigweed: 0
Corn (Zea mays) [15]; 125 g ai/ha
  Plant response rating, Corn: 0
Corn (Zea mays) [15]; 500 g ai/ha
  Plant response rating, Corn: 0
Corn (Zea mays) [16]; 125 g ai/ha
  Plant response rating, Corn: 0
Corn (Zea mays) [16]; 500 g ai/ha
  Plant response rating, Corn: 0
[17]; 125 g ai/ha
  Plant response rating, Wheat: 0
[17]; 500 g ai/ha
  Plant response rating, Wheat: 0
Rice (Oryza sativa)
  Plant response rating, Rice: 0
[18]; 125 g ai/ha
  Plant response rating, Crabgrass, Large: 0
[18]; 500 g ai/ha
  Plant response rating, Crabgrass, Large: 20
[19]
  Plant response rating, Barnyardgrass: 0

## O=C(Nc1ccccc1F)N1C(=O)OCC1c1ccc(F)c(F)c1 (stereo not drawn) [Compound 3, 4-(3,4-difluorophenyl)-N-(2-fluorophenyl)-2-oxo-3-oxazolidinecarboxamide]
[1]; 1000 g ai/ha
  Plant response rating, Barnyardgrass: 0
[2]; 1000 g ai/ha
  Plant response rating, Velvetleaf: 0
[5]; 1000 g ai/ha
  Plant response rating, Foxtail, Giant: 50
[6]; 1000 g ai/ha
  Plant response rating, Barnyardgrass: 20
[7]; 1000 g ai/ha
  Plant response rating, Velvetleaf: 0
[8]; 1000 g ai/ha
  Plant response rating, Morningglory: 0
[9]; 1000 g ai/ha
  Plant response rating, Pigweed: 0
[10]; 1000 g ai/ha
  Plant response rating, Foxtail, Giant: 40
[11]; 1000 g ai/ha
  Plant response rating, Crabgrass, Large: 80
[13]; 1000 g ai/ha
  Plant response rating, Wheat: 0
[14]; 1000 g ai/ha
  Plant response rating, Pigweed: 0
Corn (Zea mays) [15]; 1000 g ai/ha
  Plant response rating, Corn: 0
Corn (Zea mays) [16]; 1000 g ai/ha
  Plant response rating, Corn: 0
[17]; 1000 g ai/ha
  Plant response rating, Wheat: 0
[18]; 1000 g ai/ha
  Plant response rating, Crabgrass, Large: 90
